Assays:
[1] = target: Gamma-secretase; experiment: (§1) Modulation of gamma-secretase in human H4 cells expressing human wild type APP751 assessed as reduction in amyloid beta42 level incubated overnight by ELISA; assay type: cell-based
[2] = Unbound clearance in human hepatocytes; assay type: ADME, cell-based, Hepatocyte
[3] = Ratio of free drug concentration in mouse brain to EC90 for modulation of gamma secretase in human H4 cells expressing human wild type APP751 assessed as reduction in amyloid beta42 level incubated overnight by ELISA; assay type: ADME, cell-based
[4] = target: Gamma-secretase (Homo sapiens) (UniProt Q96BI3+Q9NZ42+Q8WW43+P49768+Q92542+P49810); experiment: as §1; assay type: cell-based; conditions: filed as modulator
[5] = system: Mus musculus; experiment: In vivo modulation of gamma secretase in mouse assessed as reduction in Abeta42 levels in brain at 30 mg/kg, po measured after 6 hrs relative to control; assay type: functional; design: scale not given: the % may be the effect or the level left
[6] = system: Rattus norvegicus; experiment: In vivo modulation of gamma secretase in rat assessed as reduction in Abeta42 levels in CSF at 30 mg/kg, po measured after 6 hrs by ELISA relative to control; assay type: functional, Cerebrospinal fluid; design: scale not given: the % may be the effect or the level left
[7] = system: Rattus norvegicus; experiment: In vivo modulation of gamma secretase in rat assessed as reduction in Abeta42 levels in brain at 30 mg/kg, po measured after 6 hrs by ELISA relative to control; assay type: functional; design: scale not given: the % may be the effect or the level left
[8] = Ratio of free drug concentration in rat brain to EC90 for modulation of gamma secretase in human H4 cells expressing human wild type APP751 assessed as reduction in amyloid beta42 level incubated overnight by ELISA; assay type: ADME, cell-based

| SMILES | EC50 [1] [nM] | CL free [2] [mL/min/kg] | Ratio [3] | EC90 [4] [nM] | Activity [5] [%] | Activity [6] [%] | Activity [7] [%] | Ratio [8] |
| --- | --- | --- | --- | --- | --- | --- | --- | --- |
| COc1nc(C2=NOCC(c3cccc(C#N)c3)N2)ccc1-n1cnc(C)c1 (stereo not given) | 214 | – | – | – | – | – | – | – |
| COc1cccc(C2CON=C(c3ccc(-n4cnc(C)c4)c(OC)n3)N2)c1 (stereo not given) | 197 | – | – | – | – | – | – | – |
| COc1nc(C2=NOCC(c3cc(Cl)cc(Cl)c3)N2)ccc1-n1cnc(C)c1 (stereo not given) | 10 | 85 | 0.8 | 104 | 23 | – | – | – |
| COc1nc(C2=NOCC(c3ccc(C)cc3)N2)ccc1-n1cnc(C)c1 (stereo not given) | 74 | 135 | – | – | – | – | – | – |
| COc1nc(C2=NOCC(c3ccc(C4CC4)cc3)N2)ccc1-n1cnc(C)c1 (stereo not given) | 39 | 208 | – | – | – | – | – | – |
| COc1ccc(C2CON=C(c3ccc(-n4cnc(C)c4)c(OC)n3)N2)cc1 (stereo not given) | 97 | – | – | – | – | – | – | – |
| COc1nc(C2=NOCC(c3ccc(C(C)(C)C)cc3)N2)ccc1-n1cnc(C)c1 (stereo not given) | 10 | 320 | – | – | – | – | – | – |
| COc1nc(C2=NOC(C)C(c3cccc(Cl)c3)N2)ccc1-n1cnc(C)c1 (stereo not given) | 14 | 19 | – | – | – | – | – | – |
| COc1nc(C2=NOCC(c3ccc(Cl)cc3)N2)ccc1-n1cnc(C)c1 (stereo not given) | 37 | 2 | 0.6 | 389 | 26 | – | – | – |
| COc1nc(C2=NOC[C@H](c3cc4ccccc4o3)N2)ccc1-n1cnc(C)c1 | 35 | 51 | 1.1 | 383 | 43 | 58 | 30 | 0.7 |
| COc1nc(C2=NOCC(c3ccccc3)N2)ccc1-n1cnc(C)c1 (stereo in doubt; 7a) | 97 | 21 | – | – | – | – | – | – |
| COc1nc(C2=NOCC(c3cccc(C(F)(F)F)c3)N2)ccc1-n1cnc(C)c1 (stereo not given) | 43 | – | – | – | – | – | – | – |
| COc1nc(C2=NOCC(c3ccccc3)N2)ccc1-n1cnc(C)c1 (stereo in doubt; 7) | 2000 | – | – | – | – | – | – | – |
| COc1nc(C2=NOCC(c3ccc(C4CC4)c(Cl)c3)N2)ccc1-n1cnc(C)c1 (stereo not given) | 13 | 1147 | – | – | – | – | – | – |
| COc1nc(C2=NOCC(c3ccc(C)c(Cl)c3)N2)ccc1-n1cnc(C)c1 (stereo not given) | 14 | 422 | – | – | – | – | – | – |
| COc1nc(C2=NOCC(c3ccc(Cl)c(C(F)(F)F)c3)N2)ccc1-n1cnc(C)c1 (stereo not given) | 8 | 6 | – | – | – | – | – | – |
| COc1nc(C2=NOCC(c3ccc(C(F)(F)F)c(F)c3)N2)ccc1-n1cnc(C)c1 (stereo not given) | 21 | 62 | – | – | – | – | – | – |

| SMILES | EC50 [1] [nM] | CL free [2] [mL/min/kg] | Ratio [3] | EC90 [4] [nM] | Activity [5] [%] | Activity [6] [%] | Activity [7] [%] | Ratio [8] |
| --- | --- | --- | --- | --- | --- | --- | --- | --- |
| COc1nc(C2=NOCC(c3cccc(C4CC4)c3)N2)ccc1-n1cnc(C)c1 (stereo not given) | 23 | 29 | – | – | – | – | – | – |
| COc1nc(C2=NOCC(c3ccc(C(F)(F)F)cc3)N2)ccc1-n1cnc(C)c1 (stereo not given) | 34 | 12 | 1.1 | 407 | 36 | – | – | – |
| COc1nc(C2=NOCC(c3ccc(C(F)(F)F)c(Cl)c3)N2)ccc1-n1cnc(C)c1 (stereo not given) | 10 | – | – | – | – | – | – | – |
| COc1nc(C2=NOC(C)(C)C(c3ccccc3)N2)ccc1-n1cnc(C)c1 (stereo not given) | 75 | 5 | – | – | – | – | – | – |
| COc1nc(C2=NOC(C)C(c3ccc(Cl)c(F)c3)N2)ccc1-n1cnc(C)c1 (stereo not given) | 8 | 1 | 2.6 | 97 | 43 | 73 | 44 | 2.4 |
| COc1nc(C2=NOCC(c3ccc(Cl)c(C)c3)N2)ccc1-n1cnc(C)c1 (stereo not given) | 10 | 70 | 1.3 | 127 | 30 | – | – | – |
| COc1nc(C2=NOCC(c3ccc(F)c(C(F)(F)F)c3)N2)ccc1-n1cnc(C)c1 (stereo not given) | 19 | – | 0.7 | 268 | 41 | – | – | – |
| COc1nc(C2=NOCC(c3ccc(Cl)c(F)c3)N2)ccc1-n1cnc(C)c1 (stereo not given) | 23 | 32 | 1.7 | 246 | 28 | – | – | – |
| COc1nc(C2=NOC(C)C(c3ccc(Cl)c(Cl)c3)N2)ccc1-n1cnc(C)c1 (stereo not given) | 5 | 20 | – | – | – | – | – | – |
| COc1nc(C2=NOCC(c3ccc(Cl)c(C4CC4)c3)N2)ccc1-n1cnc(C)c1 (stereo not given) | 13 | 274 | – | – | – | – | – | – |
| COc1nc(C2=NOCC(c3cccc(Cl)c3)N2)ccc1-n1cnc(C)c1 (stereo not given) | 26 | 15 | – | – | – | – | – | – |
| COc1nc(C2=NOC(C)C(c3ccc(Cl)cc3)N2)ccc1-n1cnc(C)c1 (stereo not given) | 16 | 12 | 4.5 | 187 | 47 | 84 | 41 | 0.3 |
| COc1nc(C2=NOCC(c3ccc(C#N)cc3)N2)ccc1-n1cnc(C)c1 (stereo not given) | 450 | – | – | – | – | – | – | – |
| COc1nc(C2=NOCC(c3ccc(F)cc3)N2)ccc1-n1cnc(C)c1 (stereo not given) | 60 | – | – | – | – | – | – | – |
| COc1nc(C2=NOC(C)(C)C(c3ccc(Cl)cc3)N2)ccc1-n1cnc(C)c1 (stereo not given) | 23 | 15 | – | – | – | – | – | – |
| COc1nc(C2=NOCC(c3ccc(Cl)c(Cl)c3)N2)ccc1-n1cnc(C)c1 (stereo not given) | 10 | – | 0.5 | 97 | 37 | – | – | – |
| COc1nc(C2=NOCC(c3ccc(F)c(Cl)c3)N2)ccc1-n1cnc(C)c1 (stereo not given) | 23 | 13 | 1.5 | 278 | 30 | – | – | – |

Source: ChEMBL document CHEMBL4837257, “Discovery of the Oxadiazine FRM-024: A Potent CNS-Penetrant Gamma Secretase Modulator” (J Med Chem, 2021)
